Measurements from the supplement of paper PMC10307832.

Legend:
Test in all cases: relative viability (nuclei count vs DMSO), 5 days (fraction); higher = more cells survive
[1] = compound: C(C(=O)C(=O)O)Br [Bromopyruvate] + N=C(N)NC(=N)NCCc1ccccc1 [Phenformin] (partner 250 µM)
How it was run: (§1)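 Lung cancer cell lines, seeded in 1536-well plates, were treated the following day by pin tool with a single drug or with five library-drug doses (not always all listed) in √10 steps on top of a fixed anchor-drug dose. Cells were fixed and nuclei stained in one step after 5 days, and nuclei were counted. Relative viability is the nuclei count for treated wells divided by that for vehicle wells, reported as medians of duplicate plates.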

[2] = compound: CC(O)(CS(=O)(=O)c1ccc(F)cc1)C(=O)Nc1ccc(C#N)c(C(F)(F)F)c1 [Bicalutamide] + CC(=O)Nc1cccc(-n2c(=O)n(C3CC3)c(=O)c3c(Nc4ccc(I)cc4F)n(C)c(=O)c(C)c32)c1 [Trametinib] (partner 0.02 µM)
How it was run: as §1

[3] = compound: CC(O)(CS(=O)(=O)c1ccc(F)cc1)C(=O)Nc1ccc(C#N)c(C(F)(F)F)c1 [Bicalutamide] + CS(=O)(=O)N1CCN(Cc2cc3nc(-c4cccc5[nH]ncc45)nc(N4CCOCC4)c3s2)CC1 [Pictilisib] (partner 1 µM)
How it was run: as §1

[4] = compound: CC(O)(CS(=O)(=O)c1ccc(F)cc1)C(=O)Nc1ccc(C#N)c(C(F)(F)F)c1 [Bicalutamide] + O=C(CCCCCCC(=O)Nc1ccccc1)NO [Vorinostat] (partner 1 µM)
How it was run: as §1

Cell Line	relative viability ([1]; first compound 1 µM)	relative viability ([1]; first compound 3.162 µM)	relative viability ([1]; first compound 10 µM)	relative viability ([1]; first compound 31.62 µM)	relative viability ([1]; first compound 100 µM)	relative viability ([2]; first compound 0.08 µM)	relative viability ([2]; first compound 0.253 µM)	relative viability ([2]; first compound 0.8 µM)	relative viability ([2]; first compound 2.53 µM)	relative viability ([3]; first compound 0.08 µM)	relative viability ([3]; first compound 0.253 µM)	relative viability ([3]; first compound 0.8 µM)	relative viability ([3]; first compound 2.53 µM)	relative viability ([4]; first compound 0.08 µM)	relative viability ([4]; first compound 0.253 µM)	relative viability ([4]; first compound 0.8 µM)	relative viability ([4]; first compound 2.53 µM)
NCI-H596	0.694	0.724	0.501	0.695	0.822	0.76	0.765	0.994	0.952	0.409	0.623	0.404	0.475	0.679	0.571	0.66	0.648
NCI-H647	0.5	0.637	0.578	0.494	0.494	0.482	0.429	0.721	0.414	0.358	0.348	0.643	0.339	0.474	0.655	0.575	0.435
NCI-H650	0.532	0.45	0.414	0.462	0.47	1.04	1.01	1.12	0.934	0.726	0.671	0.951	0.768	0.449	0.518	0.513	0.367
NCI-H661	0.294	0.263	0.237	0.287	0.276	0.631	0.534	0.621	0.558	0.433		0.494	0.407	0.768	0.805	0.771	0.806
NCI-H727	0.607	0.778	0.578	0.622	0.527	0.38	0.381	0.414	0.399	0.415	0.456	0.377	0.423	1.38	1.08	1.24	1.19
NCI-H838	0.557	0.604	0.656	0.603	0.555	0.553	0.419	0.661	0.293	0.589	0.415	0.524	0.324	0.72	0.707	0.749	0.564
NCI-H1355	0.473	0.481	0.442	0.483	0.504	0.432	0.383	0.447	0.472	0.413	0.316	0.441	0.485	0.679	0.596	0.691	0.609
NCI-H1395	0.419	0.43	0.424	0.443	0.445	0.986	1.04	1.12	0.948	0.596	0.519	0.687	0.456	0.882	0.666	0.792	0.624
NCI-H1437	0.339	0.293	0.398	0.281	0.288	0.598	0.475	0.612	0.476	0.475	0.381	0.419	0.451	0.839	0.832	0.875	0.859
NCI-H1650	0.414	0.429	0.475	0.449	0.291	0.586	0.529	0.713	0.473	0.701	0.502	0.825	0.597	0.685	0.586	0.581	0.611
NCI-H1651	0.323	0.345	0.429	0.331	0.349	0.836	0.773	0.932	0.83	0.618	0.429	0.686	0.471	0.577	0.514	0.662	0.567
NCI-H1666	0.598	0.582	0.606	0.605	0.496	0.926	0.838	0.866	0.959	0.392	0.404	0.477	0.406	0.921	1.05	1.14	0.981
NCI-H1734	0.342	0.471	0.513	0.392	0.385	0.709	0.531	0.681	0.663	0.438	0.388	0.593	0.431	0.85	0.701	1.05	0.673
NCI-H1755	0.648	0.609	0.599	0.642	0.71	0.738	0.774	0.776	0.751	0.476	0.378	0.523	0.279	0.727	0.748	0.916	0.635
NCI-H1793	0.382	0.452	0.455	0.413	0.401	0.382		0.448	0.439	0.285	0.208	0.415	0.281	0.869		0.996	0.566
NCI-H1915	0.363	0.371	0.378	0.379	0.383	0.338	0.288	0.286	0.229	0.91	0.782	1	0.775	0.536	0.456	0.584	0.522
NCI-H1944	0.218	0.225	0.217	0.206	0.214	0.408	0.393	0.421	0.397	0.4	0.296	0.334	0.327	0.54	0.516	0.593	0.438
NCI-H1975	0.431	0.443	0.439	0.407	0.367	0.323	0.412	0.386	0.339	0.291	0.331	0.329	0.233	0.73	0.742	0.703	0.557
